Source: patent publication US8129371B2, “Thienopyrimidine and pyrazolopyrimidine compounds and their use as mTOR kinase and PI3 kinase inhibitors” (Wyeth LLC, priority 2007, dated 2012)

Columns and labels:
breast line MDA468 = assay: In vitro cell culture growth assay (MTS), MDA468; format: cell-based; conditions: Homo sapiens, 72 h, MDA468 cells, three days after drug treatment
In short: (§1)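 The readout was MTS dye metabolism at 490 nm, taken after 3-day drug exposure that began the day after seeding. Growth was expressed as percent of vehicle-treated wells in the same plate.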

PI3K [1] = molecular target: T1, PI3K (Homo sapiens, UniProt P48736); assay: Fluorescence polarization assay for PI3K; format: biochemical; conditions: PI3 Kinase γ isoform, fluorescence polarization; read-out: PI3 Kinase γ IC50
T1 construct: PI3 Kinase γ IC50; other: PI3 Kinase γ; other: PI3 Kinase γ isoform, fluorescence polarization
In short: (§2)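 Fluorescence-polarization competition readout: after 30–60 min of PIP2/ATP turnover in 1% DMSO, a stop mix with GST-GRP (70 nM) and red probe (10 nM) was added.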

PI3K [2] = molecular target: T2, PI3K (Homo sapiens, UniProt P42336); assay: Fluorescence polarization assay for PI3K; format: biochemical; conditions: PI3 Kinase α isoform, fluorescence polarization; read-out: PI3 Kinase α IC50
T2 construct: PI3 Kinase α IC50; other: PI3 Kinase α; other: PI3 Kinase α isoform, fluorescence polarization
In short: as §2

prostate line LNCap = assay: In vitro cell culture growth assay (MTS), LNCap; format: cell-based; conditions: Homo sapiens, LNCaP, 72 h, LNCap cells, three days after drug treatment
In short: as §1

Human mTOR (FLAG-TOR) = molecular target: T3, Human mTOR (FLAG-TOR) (Homo sapiens, UniProt P42345); assay: Human mTOR kinase assay with purified enzyme, DELFIA format; format: biochemical; conditions: purified human mTOR enzyme, DELFIA format
T3 construct: FLAG
In short: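 DELFIA readout: Eu-anti-P(T389)-S6K antibody (40 ng/mL, 1 h) on captured His6-S6K from the stopped reaction. Kinase step used purified FLAG-tagged human mTOR with test compound in HEPES (pH 7.4)/MnCl2/DTT buffer, 2 h at room temperature (linear 1–6 h), terminated by EDTA/EGTA.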

T1 sequence (P48736 whole entry, canonical isoform): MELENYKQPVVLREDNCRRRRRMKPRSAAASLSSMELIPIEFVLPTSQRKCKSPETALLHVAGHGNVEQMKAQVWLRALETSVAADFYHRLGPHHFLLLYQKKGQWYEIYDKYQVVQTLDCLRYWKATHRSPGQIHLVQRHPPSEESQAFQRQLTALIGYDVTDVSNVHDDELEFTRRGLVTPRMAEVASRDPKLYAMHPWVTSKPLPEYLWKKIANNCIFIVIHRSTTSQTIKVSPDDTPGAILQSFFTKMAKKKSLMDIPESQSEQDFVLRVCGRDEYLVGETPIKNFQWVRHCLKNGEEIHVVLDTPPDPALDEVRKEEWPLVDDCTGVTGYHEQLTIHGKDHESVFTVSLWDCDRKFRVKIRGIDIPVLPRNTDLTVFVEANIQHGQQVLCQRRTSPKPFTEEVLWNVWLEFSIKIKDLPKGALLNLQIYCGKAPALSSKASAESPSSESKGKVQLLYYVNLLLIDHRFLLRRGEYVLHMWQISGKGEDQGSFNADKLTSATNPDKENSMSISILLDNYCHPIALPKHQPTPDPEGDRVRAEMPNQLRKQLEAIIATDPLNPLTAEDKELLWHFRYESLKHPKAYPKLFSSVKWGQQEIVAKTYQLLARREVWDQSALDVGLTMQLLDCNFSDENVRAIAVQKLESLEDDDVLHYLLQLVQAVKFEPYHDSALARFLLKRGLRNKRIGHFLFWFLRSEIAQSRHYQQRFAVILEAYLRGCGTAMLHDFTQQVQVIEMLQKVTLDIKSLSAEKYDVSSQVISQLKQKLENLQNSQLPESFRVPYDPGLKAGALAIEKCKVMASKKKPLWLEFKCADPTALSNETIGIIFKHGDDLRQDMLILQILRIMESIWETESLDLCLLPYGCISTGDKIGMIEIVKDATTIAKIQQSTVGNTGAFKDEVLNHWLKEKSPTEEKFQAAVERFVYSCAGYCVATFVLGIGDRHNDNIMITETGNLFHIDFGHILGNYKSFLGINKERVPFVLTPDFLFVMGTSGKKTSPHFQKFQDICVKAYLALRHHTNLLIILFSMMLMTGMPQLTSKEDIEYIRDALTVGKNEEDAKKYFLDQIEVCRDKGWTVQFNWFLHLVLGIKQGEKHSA
T2 sequence (P42336 whole entry, canonical isoform): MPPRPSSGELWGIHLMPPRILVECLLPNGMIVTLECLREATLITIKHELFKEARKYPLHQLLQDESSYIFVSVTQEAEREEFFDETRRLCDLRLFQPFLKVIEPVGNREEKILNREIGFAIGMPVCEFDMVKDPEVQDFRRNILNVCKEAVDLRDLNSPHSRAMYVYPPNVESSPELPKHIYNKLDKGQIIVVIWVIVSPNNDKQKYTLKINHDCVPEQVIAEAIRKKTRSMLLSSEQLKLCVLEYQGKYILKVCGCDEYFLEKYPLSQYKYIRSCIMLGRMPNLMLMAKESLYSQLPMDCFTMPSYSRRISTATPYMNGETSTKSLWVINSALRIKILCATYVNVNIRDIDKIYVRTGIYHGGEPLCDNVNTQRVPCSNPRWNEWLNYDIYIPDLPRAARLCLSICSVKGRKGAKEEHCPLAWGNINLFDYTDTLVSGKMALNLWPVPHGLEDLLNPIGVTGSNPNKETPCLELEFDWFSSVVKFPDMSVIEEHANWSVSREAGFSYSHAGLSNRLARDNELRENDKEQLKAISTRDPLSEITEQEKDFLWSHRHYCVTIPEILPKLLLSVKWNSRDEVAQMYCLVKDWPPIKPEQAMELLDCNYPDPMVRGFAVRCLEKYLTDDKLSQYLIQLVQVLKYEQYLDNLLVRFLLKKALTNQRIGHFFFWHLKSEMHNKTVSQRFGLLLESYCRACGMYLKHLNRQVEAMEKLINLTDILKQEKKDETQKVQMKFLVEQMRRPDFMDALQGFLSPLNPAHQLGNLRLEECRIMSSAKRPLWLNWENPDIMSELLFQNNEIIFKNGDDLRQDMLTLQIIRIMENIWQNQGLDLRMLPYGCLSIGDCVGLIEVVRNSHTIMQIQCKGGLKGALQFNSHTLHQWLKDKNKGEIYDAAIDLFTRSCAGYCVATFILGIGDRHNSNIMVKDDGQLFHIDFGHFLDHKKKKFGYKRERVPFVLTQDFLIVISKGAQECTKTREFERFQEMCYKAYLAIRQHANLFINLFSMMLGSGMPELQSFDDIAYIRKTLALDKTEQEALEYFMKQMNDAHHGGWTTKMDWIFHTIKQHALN

Row | SMILES | IC50 (breast line MDA468) [nM] | IC50 (PI3K [1]) [nM] | IC50 (PI3K [2]) [nM] | IC50 (prostate line LNCap) [nM] | IC50 (Human mTOR (FLAG-TOR)) [nM]
1 | O=C(Nc1ccc(-c2nc(N3CC4C[C@@H](O)C(C3)O4)c3cnn(CC(F)(F)F)c3n2)cc1)OCCO (stereo partly drawn) [Example 379, 2-hydroxyethyl (4-{4-[(6R)-6-hydroxy-8-oxa-3-azabicyclo[3.2.1]oct-3-yl]-1-(2,2,2-trifluoroethyl)-1H-pyrazolo[3,4-d]pyrimidin-6-yl}phenyl)carbamate] | 5000 | > 10000 | > 10000 | 6800 | 245
2 | Oc1cccc(-c2nc(N3C[C@@H]4C[C@H]3CO4)c3cnn(-c4ccccc4)c3n2)c1 [Example 382, 3-{4-[(1S,4S)-2-oxa-5-azabicyclo[2.2.1]hept-5-yl]-1-phenyl-1H-pyrazolo[3,4-d]pyrimidin-6-yl}phenol] | 5500 | 11600 | 1910 | 1200 | 49.5
3 | CNC(=O)Nc1ccc(-c2nc(N3CC4CCC(C3)O4)c3cnn(C4CCC(OC)CC4)c3n2)cc1 (stereo not shown) [Example 383, 1-{4-[1-(4-methoxycyclohexyl)-4-(8-oxa-3-azabicyclo[3.2.1]oct-3-yl)-1H-pyrazolo[3,4-d]pyrimidin-6-yl]phenyl}-3-methylurea] | 30 | > 10000 | 793 | 7 | 0.53
4 | COC1CCC(n2ncc3c(N4CC5CCC(C4)O5)nc(-c4ccc(NC(=O)Nc5cccnc5)cc4)nc32)CC1 (stereo not shown) [Example 384, 1-{4-[1-(4-methoxycyclohexyl)-4-(8-oxa-3-azabicyclo[3.2.1]oct-3-yl)-1H-pyrazolo[3,4-d]pyrimidin-6-yl]phenyl}-3-pyridin-3-ylurea] | 22 | 2170 | 297 | 2 | 0.175
5 | CNC(=O)Nc1ccc(-c2nc(N3CC4CCC(C3)O4)c3cnn(C4COCOC4)c3n2)cc1 [Example 385, 1-{4-[1-(1,3-dioxan-5-yl)-4-(8-oxa-3-azabicyclo[3.2.1]oct-3-yl)-1H-pyrazolo[3,4-d]pyrimidin-6-yl]phenyl}-3-methylurea] | 4700 | > 10000 | 4030 | 1000 | 9.95
6 | c1cc2cc(-c3nc(N4CC5CCC(C4)O5)c4cnn(C5CCC6(CC5)OCCO6)c4n3)ccc2[nH]1 [Example 388, 1-(1,4-dioxaspiro[4.5]dec-8-yl)-6-(1H-indol-5-yl)-4-(8-oxa-3-azabicyclo[3.2.1]oct-3-yl)-1H-pyrazolo[3,4-d]pyrimidine] | 2000 | > 10000 | 10500 | 330 | 12.5
7 | Cn1ncc2c(N3CC4COC(C3)O4)nc(-c3ccc(NC(=O)Nc4cccnc4)cc3)nc21 (stereo not shown) [Example 391, 1-{4-[4-(6,8-dioxa-3-azabicyclo[3.2.1]oct-3-yl)-1-methyl-1H-pyrazolo[3,4-d]pyrimidin-6-yl]phenyl}-3-pyridin-3-ylurea] | 580 | 919 | 101 | 185 | 4.2
8 | CNC(=O)Nc1ccc(-c2nc(N3CC4COC(C3)O4)c3cnn(C)c3n2)cc1 (stereo not shown) [Example 392, 1-{4-[4-(6,8-dioxa-3-azabicyclo[3.2.1]oct-3-yl)-1-methyl-1H-pyrazolo[3,4-d]pyrimidin-6-yl]phenyl}-3-methylurea] | 4800 | 11000 | 582 | 1200 | 39.5
9 | O=C(Nc1ccc(-c2nc(N3C[C@@H]4C[C@H]3CO4)c3cnn(CC(F)(F)F)c3n2)cc1)Nc1ccc(N2CCNCC2)cc1 [Example 393, 1-(4-{4-[(1S,4S)-2-oxa-5-azabicyclo[2.2.1]hept-5-yl]-1-(2,2,2-trifluoroethyl)-1H-pyrazolo[3,4-d]pyrimidin-6-yl}phenyl)-3-(4-piperazin-1-ylphenyl)urea] | 14 | 3090 | 330 | 1 | 1.75
10 | c1cncc(CN2CCC(n3ncc4c(N5CC6CCC(C5)O6)nc(-c5ccc6[nH]ccc6c5)nc43)CC2)c1 [Example 394, 6-(1H-indol-5-yl)-4-(8-oxa-3-azabicyclo[3.2.1]oct-3-yl)-1-[1-(pyridin-3-ylmethyl)piperidin-4-yl]-1H-pyrazolo[3,4-d]pyrimidine] | 2000 | 9500 | 2920 | 320 | 14.5
11 | O=C(Nc1ccc(-c2nc(N3CC4CCC(C3)O4)c3cnn(CC(F)(F)F)c3n2)cc1)NC1CC1 [Example 395, 1-cyclopropyl-3-{4-[4-(8-oxa-3-azabicyclo[3.2.1]oct-3-yl)-1-(2,2,2-trifluoroethyl)-1H-pyrazolo[3,4-d]pyrimidin-6-yl]phenyl}urea] | 60 | 8000 | 1460 | 4 | 0.48
12 | CCn1nc(Br)c2c(N3CC4CCC(C3)O4)nc(-c3ccc(NC(=O)NC)cc3)nc21 [Example 397, 1-{4-[3-bromo-1-ethyl-4-(8-oxa-3-azabicyclo[3.2.1]oct-3-yl)-1H-pyrazolo[3,4-d]pyrimidin-6-yl]phenyl}-3-methylurea] | 1500 | 5630 | 317 | 210 | 3.1
13 | CN1CCN(c2ccc(NC(=O)Nc3ccc(-c4nc(N5CC6CCC(C5)O6)c5cnn(C6CCC(=O)CC6)c5n4)cc3)cc2)CC1 [Example 400, 1-[4-(4-methylpiperazin-1-yl)phenyl]-3-{4-[4-(8-oxa-3-azabicyclo[3.2.1]oct-3-yl)-1-(4-oxocyclohexyl)-1H-pyrazolo[3,4-d]pyrimidin-6-yl]phenyl}urea] | < 1 | 1990 | 165 | < 1 | 0.335
14 | O=C1CCC(n2ncc3c(N4CC5CCC(C4)O5)nc(-c4ccc(NC(=O)NC5CC5)cc4)nc32)CC1 [Example 401, 1-cyclopropyl-3-{4-[4-(8-oxa-3-azabicyclo[3.2.1]oct-3-yl)-1-(4-oxocyclohexyl)-1H-pyrazolo[3,4-d]pyrimidin-6-yl]phenyl}urea] | 10 | > 10000 | 2110 | 1 | 0.445
15 | CNC(=O)Nc1ccc(-c2nc(N3CC4CCC(C3)O4)c3sccc3n2)cc1 [Example 406, 1-methyl-3-{4-[4-(8-oxa-3-azabicyclo[3.2.1]oct-3-yl)thieno[3,2-d]pyrimidin-2-yl]phenyl}urea] | 400 | > 10000 | 423 | 85 | 0.94
16 | O=C(NCCF)Nc1ccc(-c2nc(N3CC4CCC(C3)O4)c3sccc3n2)cc1 [Example 408, 1-(2-fluoroethyl)-3-{4-[4-(8-oxa-3-azabicyclo[3.2.1]oct-3-yl)thieno[3,2-d]pyrimidin-2-yl]phenyl}urea] | 530 | > 10000 | 825 | 87 | 0.61
17 | O=C(Nc1ccc(-c2nc(N3CC4CCC(C3)O4)c3sccc3n2)cc1)NC1CC1 [Example 410, 1-cyclopropyl-3-{4-[4-(8-oxa-3-azabicyclo[3.2.1]oct-3-yl)thieno[3,2-d]pyrimidin-2-yl]phenyl}urea] | 780 | ≥ 10000 | 1360 | 40 | 0.71
